Test system: insulin-GLase-expressed MIN6 cells (mouse pancreatic β cells)
Experiment: Secretion of insulin-GLase fusion protein from transformed MIN6 cells, luminescence (luciferase) activity in the medium
Format: cell-based
Details: glibenclamide in low glucose-modified KRHB buffer; aliquots taken 0-30 minutes; control 2 mM glucose; FIG. 9
Protocol: Mouse pancreatic β cells, MIN6 strains, were cultured in high glucose DMEM (manufactured by Sigma) supplemented with 10% fetal calf serum (manufactured by Invitrogen) and 50 μM of 2-mercaptoethanol. The expression vector obtained in EXAMPLE 1-1 was transfected to the MIN6 cell line using LipofectAMINE 2000 (manufactured by Invitrogen). After the transfection, the cells were incubated in a CO2 incubator at 37° C. for 24 hours. The secretion expression of the fusion Gaussia luciferase protein in the transformant was confirmed by measuring the luminescence activity with a Luminometer AB2200 (manufactured by Atto Corporation) using coelenterazine as a luminescent substrate, in accordance with the method described in Biochem. Biophys. Res. Commun., 365, 96-101 (2007). As a result, the luminescence activity in the cultured medium by high glucose (20 mM glucose) stimulation to the transformed MIN6 cells increased by about 7 times as compared to that prior to the treatment (FIG. 1). […] Glibenclamide, which is a sulfonylurea type hypoglycemic agent, promotes the secretion of endogenous insulin to lower blood glucose levels. This promotion of insulin secretion was examined using the insulin-GLase-expressed MIN6 cells to assess the effect. […]

COc1ccc(Cl)cc1C(=O)NCCc1ccc(S(=O)(=O)NC(=O)NC2CCCCC2)cc1 [glibenclamide, Glibenclamide]
insulin secretion (luciferase activity of secreted insulin-GLase): promoted

Reference: patent US9181318B2, “Method of screening a drug such as insulin secretagogue” (JNC Corporation, priority 2009, dated 2015)
